PubChem BioAssay AID1845217 (Molecular Pharmacology Branch, DTP, NCI, 2023)

Tested on: VA-ES-BJ tumor spheroid viability
Assay: Anticancer human tumor VA-ES-BJ cell line growth inhibition;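 further: spheroids exposed to compounds for seven days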;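 on viability, T/C: percent of DMSO vehicle control viability so 100% = untreated growth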
Settings: spheroids with HUVEC and MSC; for IC50: curve of first compound; for viability, T/C: stronger effect = lower value
Description: Multicellular complex tumor spheroid response to DNA repair inhibitors in combination with DNA-damaging drugs
This study explores the anticancer activities of DNA-damaging drugs and inhibitors of DNA damage repair, both as single agents and in combinations. Complex tumor spheroids comprised of malignant cells, endothelial cells and mesenchymal stem cells served as an in vitro model for human solid tumors. This model system incorporates physiologically relevant features and patient-derived or established malignant cell lines with clinically relevant genetic alterations from many tumor types. Twenty-six patient-derived or established malignant cell lines were evaluated representing sarcoma, melanoma, small cell lung cancer (SCLC), non-small cell lung cancer (NSCLC), as well as bladder, ovarian and pancreatic cancers. The concentration ranges selected for each drug and investigational agent were based upon clinically achievable concentrations if the clinical Cmax of the agent was known.
Compounds. The drugs and compounds olaparib (NSC753686), talazoparib (NSC767125), berzosertib (NSC777718), elimusertib (NSC800525), nedisertib (NSC802822), VX-984 (NSC792969), AZD-1390 (NSC803789), temozolomide (NSC362856), topotecan (NSC609699), trabectedin (NSC813783), staurosporine (NSC755774), and gemcitabine (NSC613327) were obtained from the National Cancer Institute (NCI) Developmental Therapeutics Program Chemical Repository. The FDA-approved anticancer drug set is available from the Developmental Therapeutics Program at https://dtp.cancer.gov/organization/dscb/obtaining/available_plates.htm. […] The stock solutions were prepared in dimethyl sulfoxide (DMSO, Sigma-Aldrich, St. Louis, MO, cat. D2650) at 400-fold the tested concentration and stored at -70 degrees C. Prior to their use, the stock solutions were diluted in fresh medium and the final DMSO concentration in the assay was 0.25% (v/v). All drugs and investigational agents were tested over a range starting from a high concentration at or near the clinical Cmax and decreasing in half-log increments. If the clinical Cmax for an agent had not been determined, the highest concentration tested was 10 microM.
Cell Lines. The patient-derived cancer cell (PDC) lines: 156681-154-R-J1-PDC, 283228-195-R-J1-PDC, 287954-098-R-J1-PDC, 292921-168-R-J2-PDC, 349418-098-R-PDC, 425362-245-T-J1-PDC, 556581-035-R-J1-PDC, and BL0293-F563-PDC were received from the NCI Patient-Derived Models Repository (PDMR, https://pdmr.cancer.gov). The established cell lines HS-SY-2 (RRID:CVCL_8719), MPNST, and SYO-1 (RRID:CVCL_7146) were obtained from the Sloan Kettering Institute. The alveolar soft parts sarcoma cell line ASPS-1 (RRID:CVCL_S738) was established at the NCI and grown from internal seed stocks. The following established cell lines were purchased from the American Type Culture Collection (ATCC, Manassas, VA): G-401 (ATCC, cat. CRL-1441, RRID:CVCL_0270), SW982 (ATCC, cat. HTB-93, RRID:CVCL_1734), VA-ES-BJ (ATCC, cat. CRL-2138, RRID:CVCL_1785), NCI-H719 (ATCC, cat. CRL-5837, RRID:CVCL_1582), NCI-H196 (ATCC, cat. CRL-5823, RRID:CVCL_1509), NCI-H841 (ATCC, cat. CRL-5845, RRID:CVCL_1595), NCI-H1618 (ATCC, cat. CRL-5879, RRID:CVCL_1480), NCI-H1876 (ATCC, cat. CRL-5902, RRID:CVCL_1503), DMS 114 (ATCC, cat. CRL-2066; RRID:CVCL_1174), NCI-H211 (ATCC, cat. CRL-5824; RRID:CVCL_1529), and SW 1271 (ATCC, cat. CRL-2177, RRID:CVCL_1716). The small cell lung cancer cell line COR-L88 was purchased from Sigma-Aldrich (cat. 92031917-1VL, RRID:CVCL_1141). The non-small cell lung cancer cell lines NCI-H226 (RRID:CVCL_1544) and NCI-H322M (RRID:CVCL_1557) were established at the NCI and grown from internal seed stocks. Pooled donor human umbilical vein endothelial cells (HUVEC, Lonza, cat. CC-2519) and human mesenchymal stem cells (hMSC, Lonza, cat. PT-2501) were purchased from Lonza (Walkersville, MD).
Cell Culture. All cells were maintained in an incubator at 37 degrees C and 5% CO2 with 95% humidity. […]

[1] = second compound 30 pM, first compound 0.0949 µM
[2] = second compound 30 pM, first compound 0.3 µM
[3] = second compound 30 pM, first compound 0.949 µM
[4] = second compound 30 pM, first compound 3 µM
[5] = second compound 94.9 pM, first compound 0.0949 µM
[6] = second compound 94.9 pM, first compound 0.3 µM
[7] = second compound 94.9 pM, first compound 0.949 µM
[8] = second compound 94.9 pM, first compound 3 µM
[9] = second compound 0.0003 µM, first compound 0.0949 µM
[10] = second compound 0.0003 µM, first compound 0.3 µM
[11] = second compound 0.0003 µM, first compound 0.949 µM
[12] = second compound 0.0003 µM, first compound 3 µM
[13] = second compound 0.000949 µM, first compound 0.0949 µM
[14] = second compound 0.000949 µM, first compound 0.3 µM
[15] = second compound 0.000949 µM, first compound 0.949 µM
[16] = second compound 0.000949 µM, first compound 3 µM
[17] = second compound 0.003 µM, first compound 0.0949 µM
[18] = second compound 0.003 µM, first compound 0.3 µM
[19] = second compound 0.003 µM, first compound 0.949 µM
[20] = second compound 0.003 µM, first compound 3 µM

| SMILES | IC50 (second compound 30 pM) [nM] | IC50 (second compound 94.9 pM) [nM] | IC50 (second compound 0.0003 µM) [nM] | IC50 (second compound 0.000949 µM) [nM] | IC50 (second compound 0.003 µM) [nM] | viability, T/C [1] [%] | viability, T/C [2] [%] | viability, T/C [3] [%] | viability, T/C [4] [%] | viability, T/C [5] [%] | viability, T/C [6] [%] | viability, T/C [7] [%] | viability, T/C [8] [%] | viability, T/C [9] [%] | viability, T/C [10] [%] | viability, T/C [11] [%] | viability, T/C [12] [%] | viability, T/C [13] [%] | viability, T/C [14] [%] | viability, T/C [15] [%] | also measured |
| --- | --- | --- | --- | --- | --- | --- | --- | --- | --- | --- | --- | --- | --- | --- | --- | --- | --- | --- | --- | --- | --- |
| O=C(c1cc(Cc2n[nH]c(=O)c3ccccc23)ccc1F)N1CCN(C(=O)C2CC2)CC1 + COc1cc2c(cc1O)CCNC21CSC2c3c(OC(C)=O)c(C)c4c(c3C(COC1=O)N1C(O)C3Cc5cc(C)c(OC)c(O)c5C(C21)N3C)OCO4 | 19000 | 11100 | < 94.9 | < 94.9 | < 94.9 | 86 | 95.8 | 99 | 91 | 90.5 | 84.7 | 86.9 | 76.9 | 44.3 | 40.7 | 43.6 | 33.2 | 3.35 | 2.46 | 3.04 | viability, T/C (second compound 30 pM, first compound 9.49 µM): 65%; viability, T/C (second compound 30 pM, first compound 30 µM): 40.1%; viability, T/C (second compound 94.9 pM, first compound 9.49 µM): 54.1%; viability, T/C (second compound 94.9 pM, first compound 30 µM): 24.4%; viability, T/C (second compound 0.0003 µM, first compound 9.49 µM): 16.1%; viability, T/C (second compound 0.0003 µM, first compound 30 µM): 5.05%; viability, T/C [16]: 2.86%; viability, T/C (second compound 0.000949 µM, first compound 9.49 µM): 1.46%; viability, T/C (second compound 0.000949 µM, first compound 30 µM): 0.33%; viability, T/C [17]: 1.2%; viability, T/C [18]: 1.64%; viability, T/C [19]: 1.77%; viability, T/C [20]: 2.03%; viability, T/C (second compound 0.003 µM, first compound 9.49 µM): 3.45%; viability, T/C (second compound 0.003 µM, first compound 30 µM): 4.01% |
| CNCc1ccc(-c2cc(-c3nc(-c4ccc(S(=O)(=O)C(C)C)cc4)cnc3N)on2)cc1 + COc1cc2c(cc1O)CCNC21CSC2c3c(OC(C)=O)c(C)c4c(c3C(COC1=O)N1C(O)C3Cc5cc(C)c(OC)c(O)c5C(C21)N3C)OCO4 | 260 | 122 | < 9.49 | < 9.49 | < 9.49 | 82.8 | 45.7 | 7.78 | 1.72 | 51.1 | 34.1 | 6.4 | 1.3 | 36.5 | 23.9 | 5.48 | 1.1 | 4.65 | 1.83 | 0.95 | viability, T/C (second compound 30 pM, first compound 0.00949 µM): 91.9%; viability, T/C (second compound 30 pM, first compound 0.03 µM): 90%; viability, T/C (second compound 94.9 pM, first compound 0.00949 µM): 85.9%; viability, T/C (second compound 94.9 pM, first compound 0.03 µM): 79.8%; viability, T/C (second compound 0.0003 µM, first compound 0.00949 µM): 47.9%; viability, T/C (second compound 0.0003 µM, first compound 0.03 µM): 44.7%; viability, T/C (second compound 0.000949 µM, first compound 0.00949 µM): 3.65%; viability, T/C (second compound 0.000949 µM, first compound 0.03 µM): 3.36%; viability, T/C [16]: 1.89%; viability, T/C (second compound 0.003 µM, first compound 0.00949 µM): 1.45%; viability, T/C (second compound 0.003 µM, first compound 0.03 µM): 1.2%; viability, T/C [17]: 0.99%; viability, T/C [18]: 1.37%; viability, T/C [19]: 1.15%; viability, T/C [20]: 0.13% |
